# Data taken from ChEMBL document CHEMBL1201862, “PubChem BioAssay data set” (2004).
# Activity calls are given as the source filed them.
# Experiments:
# [1] = target: Polyadenylate-binding protein 1 (Homo sapiens, UniProt P11940); experiment: PABP inhibition in translation initiation, SAR follow-up (AID 435018); type: functional
# [2] = target: Eukaryotic translation initiation factor 4H (Homo sapiens, UniProt Q15056); experiment: eIF4H inhibition in translation initiation, SAR follow-up (AID 435011); type: functional
# Mucolipin-3 = Mucolipin-3 (Homo sapiens, UniProt Q8TDD5); experiment: Fluorescence counterscreen assay for […] agonists: dose response cell-based high-throughput screening assay to identify agonists of the transient receptor potential channel ML3 (TRPML3). [Related pubchem assays: 1424, 1448 ]; type: functional
# Mucolipin-3, sequence (Q8TDD5 whole entry): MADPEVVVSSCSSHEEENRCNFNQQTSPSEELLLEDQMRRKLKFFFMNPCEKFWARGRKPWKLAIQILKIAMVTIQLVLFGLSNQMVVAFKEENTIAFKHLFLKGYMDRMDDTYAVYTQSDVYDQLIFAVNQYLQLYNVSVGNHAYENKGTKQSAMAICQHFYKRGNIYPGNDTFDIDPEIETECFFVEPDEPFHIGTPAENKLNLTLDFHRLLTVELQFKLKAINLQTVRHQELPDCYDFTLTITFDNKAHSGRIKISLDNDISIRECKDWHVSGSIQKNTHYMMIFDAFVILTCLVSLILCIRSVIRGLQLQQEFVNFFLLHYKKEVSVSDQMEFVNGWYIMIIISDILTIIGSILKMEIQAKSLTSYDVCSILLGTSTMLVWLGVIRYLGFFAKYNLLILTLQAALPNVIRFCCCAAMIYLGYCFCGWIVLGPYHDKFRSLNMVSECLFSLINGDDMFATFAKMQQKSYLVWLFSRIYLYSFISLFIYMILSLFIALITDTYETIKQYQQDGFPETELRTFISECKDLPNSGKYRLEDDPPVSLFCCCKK
# [3] = growth suppression of PTEN-null colon cells, dose response, cell-based, HCT116 PTEN knockout (AID 1047); type: functional;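 further: HCT116 colon tumor cells with PTEN knocked out; cells exposed to compound for 60 hours before readout; potency for loss of cell viability measured by luminescence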
# [4] = growth suppression of beta-catenin-knockout colon cells, dose response, cell-based, HCT116, human colon tumor (AID 1045); type: functional;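 further: HCT116 colon tumor cells with beta catenin knocked out; cells exposed to compound for 60 hours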
# Ion channel NompC = Ion channel NompC (Danio rerio, UniProt Q7T1G6); experiment: Dose response cell-based high-throughput screening assay for agonists of the transient receptor potential channel N1 (TRPN1). [Related pubchem assays (depositor defined):AID1424, AID1448]; type: functional
# HEK293 = experiment: inhibitors of LMP1-driven NF-kB reporter, dose response, cell-based, HEK293, luciferase, cherry-pick (AID 588343); type: functional; details: Homo sapiens
# [5] = target: T1, High affinity choline transporter 1 (Homo sapiens, UniProt Q9GZV3); experiment: CHT inhibitors, dose response, cell-based, 5-point CRC, membrane potential dye (AID 504840); type: functional
# T1 sequence (Q9GZV3 whole entry): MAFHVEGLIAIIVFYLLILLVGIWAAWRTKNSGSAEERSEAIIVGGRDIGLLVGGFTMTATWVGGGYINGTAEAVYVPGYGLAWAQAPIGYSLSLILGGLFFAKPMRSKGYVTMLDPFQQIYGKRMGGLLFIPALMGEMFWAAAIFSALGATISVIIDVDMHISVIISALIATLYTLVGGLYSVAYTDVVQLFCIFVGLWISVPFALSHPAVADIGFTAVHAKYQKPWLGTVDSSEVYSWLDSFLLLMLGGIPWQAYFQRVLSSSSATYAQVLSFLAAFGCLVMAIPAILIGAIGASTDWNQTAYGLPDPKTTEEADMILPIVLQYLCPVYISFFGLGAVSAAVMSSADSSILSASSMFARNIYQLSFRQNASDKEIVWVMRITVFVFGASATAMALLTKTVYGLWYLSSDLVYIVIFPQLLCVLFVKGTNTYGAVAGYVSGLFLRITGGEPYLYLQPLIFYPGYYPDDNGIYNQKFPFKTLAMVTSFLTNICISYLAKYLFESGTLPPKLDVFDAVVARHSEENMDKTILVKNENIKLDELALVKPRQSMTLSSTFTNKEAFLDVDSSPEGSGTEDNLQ
# [6] = microbe, parasite or virus in culture; type: functional; details: Mycobacterium tuberculosis
# [7] = A High Throughput Confirmatory Assay used to Identify Novel Compounds that Inhibit Mycobacterium Tuberculosis in the absence of Glycerol.; type: functional
# [8] = HepG2 cell cytotoxicity, dose response, cytotoxicity control for non-replicating M. tuberculosis project (AID 489018); type: functional; details: Mycobacterium tuberculosis
# cells = type: functional
# [9] = THP-1 cell cytotoxicity, dose response, cytotoxicity control for non-replicating M. tuberculosis project (AID 489025); type: functional
# [10] = target: DNA damage-inducible transcript 3 protein (Mus musculus, UniProt P35639); type: functional, Cricetulus griseus
# DNA damage-inducible transcript 3 protein, sequence (P35639 whole entry): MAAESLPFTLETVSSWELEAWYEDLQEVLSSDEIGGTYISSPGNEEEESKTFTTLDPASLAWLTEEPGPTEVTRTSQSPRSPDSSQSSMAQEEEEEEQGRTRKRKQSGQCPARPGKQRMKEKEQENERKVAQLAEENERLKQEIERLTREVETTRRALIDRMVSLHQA
# [11] = target: Delta-type opioid receptor (Homo sapiens, UniProt P41143); experiment: SAR Analysis of Antagonists of the DOR Receptor using an Image-Based Assay - Set 3. [Related pubchem assays (depositor defined):AID1777, AID1785]; type: functional;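 further: U2OS cells expressing DOR1 and beta-arrestin GFP stimulated with 100 nM SNC80; imaging of GFP-tagged beta-arrestin moving into spots after receptor activation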
# Delta-type opioid receptor, sequence (P41143 whole entry): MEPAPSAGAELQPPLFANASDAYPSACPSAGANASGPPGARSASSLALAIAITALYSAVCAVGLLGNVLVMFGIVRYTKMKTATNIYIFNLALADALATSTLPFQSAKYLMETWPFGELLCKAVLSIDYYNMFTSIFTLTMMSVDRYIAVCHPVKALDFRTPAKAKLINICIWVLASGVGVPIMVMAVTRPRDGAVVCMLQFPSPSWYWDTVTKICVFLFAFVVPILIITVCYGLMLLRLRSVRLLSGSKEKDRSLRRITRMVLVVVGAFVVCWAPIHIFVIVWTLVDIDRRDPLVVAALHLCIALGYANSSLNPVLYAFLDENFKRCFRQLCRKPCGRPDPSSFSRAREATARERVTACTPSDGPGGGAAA
# [12] = target: T2, Kappa-type opioid receptor (Homo sapiens, UniProt P41145); experiment: SAR analysis of small molecule antagonists of the kappa opioid receptor via a luminescent beta-arrestin assay - Set 4. [Related pubchem assays (depositor defined):AID1777, AID1778, AID1785, AID1786, AID1966, AID2133, AID2136, AID2285]; type: functional
# T2 sequence (P41145 whole entry): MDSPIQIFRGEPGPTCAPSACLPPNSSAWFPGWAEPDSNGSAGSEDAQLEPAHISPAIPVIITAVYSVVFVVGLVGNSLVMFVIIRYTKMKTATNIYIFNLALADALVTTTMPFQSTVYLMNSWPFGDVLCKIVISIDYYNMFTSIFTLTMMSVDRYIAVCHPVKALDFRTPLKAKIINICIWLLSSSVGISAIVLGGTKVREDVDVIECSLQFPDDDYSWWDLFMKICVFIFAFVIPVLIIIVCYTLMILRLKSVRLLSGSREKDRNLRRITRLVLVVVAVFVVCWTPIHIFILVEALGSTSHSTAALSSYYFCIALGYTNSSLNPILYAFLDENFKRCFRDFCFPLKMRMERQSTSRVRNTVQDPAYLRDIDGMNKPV
# [13] = target: T2, Kappa-type opioid receptor; experiment: SAR analysis of Antagonists of the Kappa Opioid Receptor (KOR) using an Image-Based Assay - Set 4. [Related pubchem assays (depositor defined):AID1777, AID1785]; type: functional
# Mu-type opioid receptor = Mu-type opioid receptor (Homo sapiens, UniProt P35372); experiment: SAR Analysis of Antagonists of the MOR Receptor using an Image-Based Assay - Set 3. [Related pubchem assays (depositor defined):AID1777, AID1785, AID1786, AID1966, AID2133, AID2136, AID2284, AID2285, AID2420]; type: functional
# Mu-type opioid receptor, sequence (P35372 whole entry): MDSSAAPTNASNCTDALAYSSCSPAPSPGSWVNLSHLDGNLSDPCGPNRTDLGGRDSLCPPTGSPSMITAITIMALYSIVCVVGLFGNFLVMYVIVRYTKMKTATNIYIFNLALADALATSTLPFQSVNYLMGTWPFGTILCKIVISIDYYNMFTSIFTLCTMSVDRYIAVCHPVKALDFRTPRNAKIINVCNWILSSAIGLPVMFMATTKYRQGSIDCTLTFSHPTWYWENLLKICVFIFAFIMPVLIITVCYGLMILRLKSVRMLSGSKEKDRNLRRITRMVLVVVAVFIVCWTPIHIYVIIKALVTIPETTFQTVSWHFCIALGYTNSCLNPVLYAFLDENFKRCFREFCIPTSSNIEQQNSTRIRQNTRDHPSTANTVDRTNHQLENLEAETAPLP
# [14] = target: T2, Kappa-type opioid receptor; experiment: SAR analysis of small molecule antagonists of the kappa opioid receptor via a luminescent beta-arrestin assay - Set 6. [Related pubchem assays (depositor defined):AID1777, AID1778, AID1785, AID1786, AID1966, AID2133, AID2136, AID2285]; type: functional
# [15] = target: Type-1 angiotensin II receptor (Homo sapiens, UniProt P30556); experiment: AT1 receptor agonists, dose response, selectivity assay for APJ receptor agonist project, cell-based, uHTS hits (AID 488865); type: functional;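 further: beta-arrestin recruitment to AT1 measured by enzyme fragment complementation luminescence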
# Type-1 angiotensin II receptor, sequence (P30556 whole entry, the tested form may be a part): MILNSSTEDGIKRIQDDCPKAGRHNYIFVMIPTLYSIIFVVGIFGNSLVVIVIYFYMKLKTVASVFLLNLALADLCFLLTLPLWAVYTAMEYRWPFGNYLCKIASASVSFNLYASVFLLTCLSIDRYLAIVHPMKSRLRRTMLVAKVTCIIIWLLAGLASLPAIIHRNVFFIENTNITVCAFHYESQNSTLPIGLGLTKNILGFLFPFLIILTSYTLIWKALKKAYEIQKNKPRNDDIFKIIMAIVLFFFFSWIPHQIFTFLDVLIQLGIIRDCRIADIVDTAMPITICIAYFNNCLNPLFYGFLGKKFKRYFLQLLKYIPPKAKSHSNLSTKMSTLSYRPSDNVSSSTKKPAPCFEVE
# [16] = target: T3, Dual specificity protein phosphatase 3 (Homo sapiens, UniProt P51452); experiment: SAR VHR1 Fluorescent Assay for In Vitro dose response studies. [Related pubchem assays (depositor defined):AID1654, AID1661, AID1878, AID1992, AID2004, AID2070, AID2085]; type: functional
# T3 sequence (P51452 whole entry): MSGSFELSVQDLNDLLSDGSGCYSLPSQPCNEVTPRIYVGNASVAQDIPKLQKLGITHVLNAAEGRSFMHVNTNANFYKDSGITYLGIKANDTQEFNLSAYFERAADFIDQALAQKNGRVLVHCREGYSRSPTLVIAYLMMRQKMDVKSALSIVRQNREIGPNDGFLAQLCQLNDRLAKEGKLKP
# [17] = target: Tyrosine-protein phosphatase non-receptor type 12 (Homo sapiens, UniProt Q05209); experiment: SAR Selectivity Analysis of small molecule inhibitors of PEST using pCAP in a fluorescence assay. [Related pubchem assays (depositor defined):AID1779, AID1784, AID2135]; type: functional
# Tyrosine-protein phosphatase non-receptor type 12, sequence (Q05209 whole entry): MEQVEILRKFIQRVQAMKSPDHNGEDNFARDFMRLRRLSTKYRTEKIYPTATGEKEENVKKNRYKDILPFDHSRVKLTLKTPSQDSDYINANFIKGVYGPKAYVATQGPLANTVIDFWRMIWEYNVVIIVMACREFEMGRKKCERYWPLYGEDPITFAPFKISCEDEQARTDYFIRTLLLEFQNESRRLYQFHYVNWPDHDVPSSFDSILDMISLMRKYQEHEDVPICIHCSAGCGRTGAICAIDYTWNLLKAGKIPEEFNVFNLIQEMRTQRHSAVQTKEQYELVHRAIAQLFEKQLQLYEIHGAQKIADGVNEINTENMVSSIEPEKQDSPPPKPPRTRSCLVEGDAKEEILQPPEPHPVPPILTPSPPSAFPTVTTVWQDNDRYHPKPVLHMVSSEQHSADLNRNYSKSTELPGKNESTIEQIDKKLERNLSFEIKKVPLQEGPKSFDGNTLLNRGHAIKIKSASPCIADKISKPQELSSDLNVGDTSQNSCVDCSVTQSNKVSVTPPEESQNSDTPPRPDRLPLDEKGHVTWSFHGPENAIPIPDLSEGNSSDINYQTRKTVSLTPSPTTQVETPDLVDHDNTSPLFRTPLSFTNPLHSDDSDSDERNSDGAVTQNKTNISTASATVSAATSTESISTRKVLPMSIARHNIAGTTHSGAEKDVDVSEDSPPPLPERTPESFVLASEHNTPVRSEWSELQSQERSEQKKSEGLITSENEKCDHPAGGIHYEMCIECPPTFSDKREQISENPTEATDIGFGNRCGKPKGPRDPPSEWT
# [18] = target: T3, Dual specificity protein phosphatase 3; experiment: SAR VHR1 absorbance Assay for In Vitro dose response studies. [Related pubchem assays (depositor defined):AID1654, AID1661, AID1878, AID1992, AID2004]
# [19] = target: T4, Tyrosine-protein phosphatase non-receptor type 7 (Homo sapiens, UniProt P35236); experiment: redox-dependent HePTP inhibition, mechanism study, biochemical, fluorescence (AID 2068); type: functional
# T4 sequence (P35236 whole entry): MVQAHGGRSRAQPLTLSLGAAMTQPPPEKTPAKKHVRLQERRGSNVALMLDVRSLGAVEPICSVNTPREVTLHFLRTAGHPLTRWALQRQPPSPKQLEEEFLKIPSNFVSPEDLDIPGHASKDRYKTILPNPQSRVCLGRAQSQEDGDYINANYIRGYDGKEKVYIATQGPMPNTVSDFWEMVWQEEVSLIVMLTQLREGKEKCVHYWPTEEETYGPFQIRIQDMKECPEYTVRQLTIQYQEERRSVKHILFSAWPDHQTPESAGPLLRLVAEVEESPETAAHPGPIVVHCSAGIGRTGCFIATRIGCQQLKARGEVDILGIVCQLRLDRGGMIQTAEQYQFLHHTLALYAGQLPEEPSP
# [20] = target: T5, Tyrosine-protein phosphatase non-receptor type 22 (Homo sapiens, UniProt Q9Y2R2); experiment: SAR LYP1 Fluorescent Assay using OMFP substrate for In Vitro dose response studies - Set 3. [Related pubchem assays (depositor defined):AID1779, AID1784, AID2140, AID2686]; type: functional
# T5 sequence (Q9Y2R2 whole entry): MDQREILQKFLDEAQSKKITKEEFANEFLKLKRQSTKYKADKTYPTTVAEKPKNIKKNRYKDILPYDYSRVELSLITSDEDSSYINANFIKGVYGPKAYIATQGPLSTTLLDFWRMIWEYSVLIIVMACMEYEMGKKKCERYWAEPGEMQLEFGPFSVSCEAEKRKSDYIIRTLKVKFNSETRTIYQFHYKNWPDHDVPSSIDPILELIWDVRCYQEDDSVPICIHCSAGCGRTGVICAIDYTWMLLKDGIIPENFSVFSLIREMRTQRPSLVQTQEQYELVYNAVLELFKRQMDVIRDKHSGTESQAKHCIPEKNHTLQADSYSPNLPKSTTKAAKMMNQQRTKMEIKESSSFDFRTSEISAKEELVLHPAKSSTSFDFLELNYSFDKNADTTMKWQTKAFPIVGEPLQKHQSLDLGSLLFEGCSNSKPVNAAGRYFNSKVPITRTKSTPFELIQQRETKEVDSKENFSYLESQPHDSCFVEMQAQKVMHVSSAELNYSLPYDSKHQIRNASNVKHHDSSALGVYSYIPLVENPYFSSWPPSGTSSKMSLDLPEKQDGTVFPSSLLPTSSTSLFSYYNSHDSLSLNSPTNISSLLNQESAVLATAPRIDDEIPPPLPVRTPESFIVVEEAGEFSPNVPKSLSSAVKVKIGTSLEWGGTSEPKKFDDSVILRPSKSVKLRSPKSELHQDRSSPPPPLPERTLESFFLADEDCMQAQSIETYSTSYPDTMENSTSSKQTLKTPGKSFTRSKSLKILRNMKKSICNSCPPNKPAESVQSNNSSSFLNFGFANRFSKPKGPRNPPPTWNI
# [21] = target: T5, Tyrosine-protein phosphatase non-receptor type 22; experiment: LYP (PTPN22) phosphatase inhibitor potency, SAR follow-up, biochemical, pCAP fluorogenic substrate, fluorescence, set 3 (AID 449727); type: functional
# [22] = target: T6, Dual specificity protein phosphatase 6 (Rattus norvegicus, UniProt Q64346); type: functional;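 further: confirmatory in vitro dose-response testing of MKP-3 inhibition; recombinant His-tagged MKP-3 made in E. coli BL21 with OMFP substrate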
# T6 sequence (Q64346 whole entry): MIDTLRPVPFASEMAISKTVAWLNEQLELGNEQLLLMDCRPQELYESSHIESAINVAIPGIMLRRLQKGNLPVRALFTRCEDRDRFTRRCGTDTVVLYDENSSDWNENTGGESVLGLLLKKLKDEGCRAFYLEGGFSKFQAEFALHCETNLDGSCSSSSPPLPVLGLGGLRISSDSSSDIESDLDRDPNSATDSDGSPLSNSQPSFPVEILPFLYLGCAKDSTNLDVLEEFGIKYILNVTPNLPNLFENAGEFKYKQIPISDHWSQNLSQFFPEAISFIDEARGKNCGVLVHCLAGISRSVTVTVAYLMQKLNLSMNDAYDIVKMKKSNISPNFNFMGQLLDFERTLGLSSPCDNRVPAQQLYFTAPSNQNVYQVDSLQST
# Polyadenylate-binding protein 1, sequence (P11940 whole entry): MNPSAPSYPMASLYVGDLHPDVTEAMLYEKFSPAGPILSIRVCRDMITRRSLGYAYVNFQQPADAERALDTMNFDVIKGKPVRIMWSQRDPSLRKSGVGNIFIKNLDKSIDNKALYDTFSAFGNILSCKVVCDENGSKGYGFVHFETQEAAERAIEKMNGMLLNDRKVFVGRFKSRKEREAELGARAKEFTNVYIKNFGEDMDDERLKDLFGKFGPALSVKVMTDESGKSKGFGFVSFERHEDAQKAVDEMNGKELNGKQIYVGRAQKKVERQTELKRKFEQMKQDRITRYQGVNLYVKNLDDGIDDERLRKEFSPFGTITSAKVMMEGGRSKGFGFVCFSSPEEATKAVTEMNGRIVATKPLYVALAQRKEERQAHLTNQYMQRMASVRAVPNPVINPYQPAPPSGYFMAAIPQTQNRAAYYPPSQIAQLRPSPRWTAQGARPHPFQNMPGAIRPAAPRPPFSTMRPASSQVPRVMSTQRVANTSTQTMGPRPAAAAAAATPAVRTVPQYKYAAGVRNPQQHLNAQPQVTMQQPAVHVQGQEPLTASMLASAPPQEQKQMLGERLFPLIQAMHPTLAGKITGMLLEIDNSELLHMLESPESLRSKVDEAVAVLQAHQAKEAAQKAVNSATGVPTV
smiles,measurement,setting,value
COc1cccc(/C=C2/NC(=O)N(CC(=O)Nc3ccc(C)cc3)C2=O)c1OCc1cccc(C(=O)O)c1,IC50,[1],> 100 µM (inactive)
same,IC50,[2],10.6 µM (active)
CCCCN=C(S)Nc1ccc([N+](=O)[O-])cc1,EC50,Mucolipin-3,> 29.9 µM (not active)
same,EC50,[3],19.6 µM (active)
same,EC50,[4],20.7 µM (active)
same,EC50,Ion channel NompC,> 29.9 µM (inactive)
same,AC50,HEK293,105 µM (active)
same,IC50,[5],12 µM (active)
CSc1ccc(NC(=O)Nc2cccn(Cc3ccccc3)c2=O)cc1,CC50,[6],> 40 µM (active)
same,IC50,[7],> 100 µM (active)
same,CC50,[8],> 20 µM (active)
same,IC50,cells,11.4 µM (active)
same,CC50,[9],> 40 µM (active)
Cc1nc(SCC(=O)Nc2ccc(C)c(F)c2)c2oc3ccccc3c2n1,Absolute IC50 (CHOP),[10],10 µM
CC(C)N(CCNC(=O)c1ccc(CNS(=O)(=O)c2ccc(C3CCCCC3)cc2)cc1)Cc1ccccc1,IC50,[11],> 32 µM (inactive)
same,IC50,[12],> 20 µM (inactive)
same,IC50,[13],1.22 µM (active)
same,IC50,Mu-type opioid receptor,2.47 µM (active)
same,IC50,[14],> 20 µM (inactive)
CCOC(=O)C1=C(Cn2cnc3ccccc32)NC(=O)NC1c1cc(C)ccc1C (configuration not stated),EC50,[15],> 100 µM (inactive)
O=C(COc1c(Cl)cccc1Cl)Oc1ccc([N+](=O)[O-])cc1,IC50,[16],> 99 µM (inactive)
same,IC50,[17],42.5 µM (active)
same,IC50,[18],> 100 µM (inactive)
same,IC50,[19],15.1 µM (active)
same,IC50,[20],> 100 µM (inactive)
same,IC50,[21],63.7 µM (active)
same,IC50,[22],> 99 µM (inactive)
